Measured values published in ChEMBL document CHEMBL4732163 (Eur J Med Chem, 2021).

What was measured:
[1] = Cytotoxicity against DENV-2 New Guinea C infected human Huh-7 cells assessed as reduction in cell viability preincubated for 1 hr followed by viral infection and measured after 48 hrs by Alamar blue assay; assay type: cell-based; conditions: Huh-7 cells infected with DENV-2 New Guinea C, time 49 hrs
[2] = test system: dengue virus type 2; assay: Antiviral activity against DENV-2 New Guinea C infected in human Huh-7 cells preincubated for 1 hr followed by viral infection and measured after 48 hrs by Renilla luciferase reporter gene assay
[3] = molecular target: Platelet-derived growth factor receptor alpha (Homo sapiens) (UniProt P16234); assay: Inhibition of wild-type human partial length PDGFRA (V575 to D1002 residues) expressed in mammalian expression system assessed as residual activity at 10 uM by Kinomescan method relative to control
Chain of Platelet-derived growth factor receptor alpha (Homo sapiens) (P16234 whole entry, the tested form may be a part): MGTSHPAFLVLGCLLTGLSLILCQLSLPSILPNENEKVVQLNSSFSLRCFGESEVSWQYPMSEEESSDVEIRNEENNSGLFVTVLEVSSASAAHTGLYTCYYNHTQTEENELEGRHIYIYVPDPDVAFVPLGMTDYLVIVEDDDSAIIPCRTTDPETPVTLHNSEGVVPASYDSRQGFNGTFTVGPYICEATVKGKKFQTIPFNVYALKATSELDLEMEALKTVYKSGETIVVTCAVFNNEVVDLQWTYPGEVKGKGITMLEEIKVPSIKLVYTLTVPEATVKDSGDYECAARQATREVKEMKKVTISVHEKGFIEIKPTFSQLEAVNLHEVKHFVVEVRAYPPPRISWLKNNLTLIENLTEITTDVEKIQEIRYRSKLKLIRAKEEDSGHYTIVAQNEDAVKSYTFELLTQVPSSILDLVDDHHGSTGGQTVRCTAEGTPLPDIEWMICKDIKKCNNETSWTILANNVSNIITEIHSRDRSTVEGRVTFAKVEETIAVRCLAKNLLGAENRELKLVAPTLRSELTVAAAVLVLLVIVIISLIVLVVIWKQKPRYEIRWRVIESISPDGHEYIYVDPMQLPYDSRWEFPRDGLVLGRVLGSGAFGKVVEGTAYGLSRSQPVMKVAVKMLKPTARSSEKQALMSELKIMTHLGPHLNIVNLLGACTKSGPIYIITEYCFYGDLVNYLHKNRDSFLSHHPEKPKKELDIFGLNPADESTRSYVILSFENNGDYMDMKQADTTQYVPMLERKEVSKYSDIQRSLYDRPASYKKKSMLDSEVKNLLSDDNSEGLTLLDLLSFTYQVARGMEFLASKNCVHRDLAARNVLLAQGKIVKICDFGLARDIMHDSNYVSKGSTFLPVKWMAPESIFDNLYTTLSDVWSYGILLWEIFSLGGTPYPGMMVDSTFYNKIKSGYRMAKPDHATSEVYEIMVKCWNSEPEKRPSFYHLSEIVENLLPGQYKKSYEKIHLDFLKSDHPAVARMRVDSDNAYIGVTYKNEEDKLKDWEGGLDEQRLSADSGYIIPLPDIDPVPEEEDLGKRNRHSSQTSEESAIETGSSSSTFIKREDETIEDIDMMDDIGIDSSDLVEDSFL

[4] = molecular target: T1, Cyclin-G-associated kinase (Homo sapiens, UniProt O14976); assay: Inhibition of tracer 222 binding to GAK (unknown origin) incubated for 1 hr by Lanthascreen TR-FRET assay
T1 sequence (O14976 whole entry): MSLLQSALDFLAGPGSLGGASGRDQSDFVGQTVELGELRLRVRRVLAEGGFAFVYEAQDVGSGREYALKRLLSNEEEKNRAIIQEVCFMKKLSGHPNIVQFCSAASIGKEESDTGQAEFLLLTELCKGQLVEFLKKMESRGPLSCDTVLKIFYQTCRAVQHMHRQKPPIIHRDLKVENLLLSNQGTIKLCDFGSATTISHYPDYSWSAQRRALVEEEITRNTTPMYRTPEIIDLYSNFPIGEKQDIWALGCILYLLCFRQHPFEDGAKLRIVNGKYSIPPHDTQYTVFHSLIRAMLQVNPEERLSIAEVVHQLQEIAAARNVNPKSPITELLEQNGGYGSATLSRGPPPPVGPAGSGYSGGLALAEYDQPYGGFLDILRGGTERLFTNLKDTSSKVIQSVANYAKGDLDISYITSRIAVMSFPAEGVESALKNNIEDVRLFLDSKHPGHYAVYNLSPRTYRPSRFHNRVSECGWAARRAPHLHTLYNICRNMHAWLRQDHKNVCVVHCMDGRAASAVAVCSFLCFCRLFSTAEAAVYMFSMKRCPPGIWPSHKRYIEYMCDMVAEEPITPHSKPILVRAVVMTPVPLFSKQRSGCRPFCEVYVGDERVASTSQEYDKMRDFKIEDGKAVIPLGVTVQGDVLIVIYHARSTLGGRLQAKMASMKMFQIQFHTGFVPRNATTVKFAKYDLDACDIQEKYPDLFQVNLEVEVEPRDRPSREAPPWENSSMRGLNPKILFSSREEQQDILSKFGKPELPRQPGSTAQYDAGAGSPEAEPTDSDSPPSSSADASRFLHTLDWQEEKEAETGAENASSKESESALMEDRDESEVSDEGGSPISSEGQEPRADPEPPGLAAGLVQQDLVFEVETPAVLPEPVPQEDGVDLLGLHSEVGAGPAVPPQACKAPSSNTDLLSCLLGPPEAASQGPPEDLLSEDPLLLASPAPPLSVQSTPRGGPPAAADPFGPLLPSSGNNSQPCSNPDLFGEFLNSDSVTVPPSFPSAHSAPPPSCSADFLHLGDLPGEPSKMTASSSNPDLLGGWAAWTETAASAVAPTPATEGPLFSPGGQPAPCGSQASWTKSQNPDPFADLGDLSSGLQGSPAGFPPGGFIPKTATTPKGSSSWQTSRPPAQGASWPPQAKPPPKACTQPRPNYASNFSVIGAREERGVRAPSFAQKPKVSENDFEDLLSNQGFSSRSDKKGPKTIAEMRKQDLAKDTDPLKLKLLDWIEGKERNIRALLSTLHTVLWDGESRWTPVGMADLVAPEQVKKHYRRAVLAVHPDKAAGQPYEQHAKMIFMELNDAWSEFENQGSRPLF

[5] = molecular target: Platelet-derived growth factor receptor beta (Homo sapiens) (UniProt P09619); assay: Inhibition of wild-type human partial length PDGFRB (V582 to Y1009 residues) expressed in bacterial expression system assessed as residual activity at 10 uM by Kinomescan method relative to control
Chain of Platelet-derived growth factor receptor beta (Homo sapiens) (P09619 whole entry, the tested form may be a part): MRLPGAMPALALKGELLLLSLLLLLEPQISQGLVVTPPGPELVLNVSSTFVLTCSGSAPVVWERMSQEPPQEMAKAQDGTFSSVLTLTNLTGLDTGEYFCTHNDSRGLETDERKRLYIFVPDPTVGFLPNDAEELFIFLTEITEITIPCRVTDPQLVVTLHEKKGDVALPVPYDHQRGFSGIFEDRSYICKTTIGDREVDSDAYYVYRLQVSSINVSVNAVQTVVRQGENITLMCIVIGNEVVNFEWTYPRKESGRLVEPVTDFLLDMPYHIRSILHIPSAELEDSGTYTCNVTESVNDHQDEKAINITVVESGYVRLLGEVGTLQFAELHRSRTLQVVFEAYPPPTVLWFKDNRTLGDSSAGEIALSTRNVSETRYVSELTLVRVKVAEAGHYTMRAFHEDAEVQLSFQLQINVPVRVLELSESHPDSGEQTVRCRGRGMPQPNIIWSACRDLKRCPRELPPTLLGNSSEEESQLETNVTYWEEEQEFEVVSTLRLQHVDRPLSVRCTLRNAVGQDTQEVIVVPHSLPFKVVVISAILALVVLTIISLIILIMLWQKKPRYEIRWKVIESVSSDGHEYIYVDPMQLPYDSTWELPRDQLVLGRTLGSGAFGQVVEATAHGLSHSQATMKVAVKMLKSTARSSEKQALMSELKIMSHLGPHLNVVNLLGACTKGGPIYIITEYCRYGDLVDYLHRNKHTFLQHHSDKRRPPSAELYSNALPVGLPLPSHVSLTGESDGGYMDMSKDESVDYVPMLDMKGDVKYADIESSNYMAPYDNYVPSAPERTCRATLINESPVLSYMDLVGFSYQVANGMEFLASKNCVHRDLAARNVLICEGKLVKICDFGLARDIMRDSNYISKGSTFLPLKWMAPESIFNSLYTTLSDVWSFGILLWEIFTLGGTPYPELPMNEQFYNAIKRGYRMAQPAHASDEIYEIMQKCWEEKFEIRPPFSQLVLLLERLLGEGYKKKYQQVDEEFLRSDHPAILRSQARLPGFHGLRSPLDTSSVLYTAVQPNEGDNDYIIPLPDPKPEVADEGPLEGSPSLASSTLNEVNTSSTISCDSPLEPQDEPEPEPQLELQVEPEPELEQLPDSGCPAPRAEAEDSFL

[6] = molecular target: MAP kinase-interacting serine/threonine-protein kinase 2 (Homo sapiens) (UniProt Q9HBH9); assay: Inhibition of wild-type human partial length MKNK2 (G63 to S388 residues) expressed in mammalian expression system assessed as residual activity at 10 uM by Kinomescan method relative to control
Chain of MAP kinase-interacting serine/threonine-protein kinase 2 (Homo sapiens) (Q9HBH9 whole entry, looked up, the tested form may be a part): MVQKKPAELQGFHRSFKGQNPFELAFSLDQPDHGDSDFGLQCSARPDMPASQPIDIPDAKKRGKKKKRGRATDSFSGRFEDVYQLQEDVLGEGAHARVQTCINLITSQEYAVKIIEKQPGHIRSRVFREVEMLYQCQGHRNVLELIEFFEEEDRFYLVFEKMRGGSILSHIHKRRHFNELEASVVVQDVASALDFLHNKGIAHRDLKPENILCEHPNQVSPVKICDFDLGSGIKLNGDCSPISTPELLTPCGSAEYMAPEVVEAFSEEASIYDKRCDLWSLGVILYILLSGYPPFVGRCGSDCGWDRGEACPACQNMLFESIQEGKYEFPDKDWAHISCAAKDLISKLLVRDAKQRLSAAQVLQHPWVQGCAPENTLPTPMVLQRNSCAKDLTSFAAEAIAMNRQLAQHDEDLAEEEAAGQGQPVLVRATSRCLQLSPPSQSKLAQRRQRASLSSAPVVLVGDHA

[7] = molecular target: High affinity nerve growth factor receptor (Homo sapiens) (UniProt P04629); assay: Inhibition of wild-type human partial length TRKA (G475 to G790 residues) expressed in mammalian expression system assessed as residual activity at 10 uM by Kinomescan method relative to control
[8] = molecular target: Cyclin-dependent kinase 7 (Homo sapiens) (UniProt P50613); assay: Inhibition of wild-type human full length CDK7 (M1 to L344 residues) expressed in mammalian expression system assessed as residual activity at 10 uM by Kinomescan method relative to control
Chain of Cyclin-dependent kinase 7 (Homo sapiens) (P50613 whole entry, the tested form may be a part): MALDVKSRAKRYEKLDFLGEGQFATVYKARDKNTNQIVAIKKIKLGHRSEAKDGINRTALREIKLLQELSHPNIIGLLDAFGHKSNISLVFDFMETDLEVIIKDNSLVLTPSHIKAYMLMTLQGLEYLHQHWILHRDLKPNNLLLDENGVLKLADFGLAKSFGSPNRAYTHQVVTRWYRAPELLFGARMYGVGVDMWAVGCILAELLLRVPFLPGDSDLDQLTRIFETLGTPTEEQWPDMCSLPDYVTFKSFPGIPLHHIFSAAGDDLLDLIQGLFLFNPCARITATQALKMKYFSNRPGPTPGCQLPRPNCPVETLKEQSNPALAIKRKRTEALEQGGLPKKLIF

[9] = molecular target: Mast/stem cell growth factor receptor Kit (Homo sapiens) (UniProt P10721); assay: Inhibition of wild-type human partial length KIT (I571 to D952 residues) expressed in bacterial expression system assessed as residual activity at 10 uM by Kinomescan method relative to control
Chain of Mast/stem cell growth factor receptor Kit (Homo sapiens) (P10721 whole entry, the tested form may be a part): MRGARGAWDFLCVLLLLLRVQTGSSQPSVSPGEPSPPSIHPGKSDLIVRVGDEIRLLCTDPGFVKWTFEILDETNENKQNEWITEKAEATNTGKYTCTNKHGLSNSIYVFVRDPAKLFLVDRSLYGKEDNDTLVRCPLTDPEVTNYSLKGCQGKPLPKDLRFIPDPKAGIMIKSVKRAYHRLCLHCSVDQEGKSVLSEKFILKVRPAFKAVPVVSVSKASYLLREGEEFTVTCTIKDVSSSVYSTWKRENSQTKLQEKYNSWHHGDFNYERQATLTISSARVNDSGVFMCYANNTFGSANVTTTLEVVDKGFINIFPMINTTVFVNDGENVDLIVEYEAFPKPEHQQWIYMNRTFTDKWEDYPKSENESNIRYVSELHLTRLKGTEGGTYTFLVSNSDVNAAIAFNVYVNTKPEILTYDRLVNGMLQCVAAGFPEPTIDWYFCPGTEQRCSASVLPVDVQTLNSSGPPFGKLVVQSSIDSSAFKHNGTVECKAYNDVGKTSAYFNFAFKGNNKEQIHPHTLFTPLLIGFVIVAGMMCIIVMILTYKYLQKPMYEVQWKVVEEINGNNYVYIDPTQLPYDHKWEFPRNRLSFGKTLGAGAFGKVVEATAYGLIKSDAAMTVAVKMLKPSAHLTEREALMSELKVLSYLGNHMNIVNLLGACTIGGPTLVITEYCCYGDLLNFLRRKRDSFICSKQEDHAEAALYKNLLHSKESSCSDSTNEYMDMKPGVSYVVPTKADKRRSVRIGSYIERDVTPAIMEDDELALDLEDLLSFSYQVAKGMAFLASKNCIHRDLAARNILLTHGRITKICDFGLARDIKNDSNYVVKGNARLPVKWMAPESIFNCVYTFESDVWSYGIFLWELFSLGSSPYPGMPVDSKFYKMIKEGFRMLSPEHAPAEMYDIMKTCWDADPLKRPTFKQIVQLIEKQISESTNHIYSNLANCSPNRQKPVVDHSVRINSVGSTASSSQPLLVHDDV

[10] = molecular target: Receptor-type tyrosine-protein kinase FLT3 (Homo sapiens) (UniProt P36888); assay: Inhibition of wild-type human partial length FLT3 (V592 to Y969 residues) expressed in bacterial expression system assessed as residual activity at 10 uM by Kinomescan method relative to control
Chain of Receptor-type tyrosine-protein kinase FLT3 (Homo sapiens) (P36888 whole entry, the tested form may be a part): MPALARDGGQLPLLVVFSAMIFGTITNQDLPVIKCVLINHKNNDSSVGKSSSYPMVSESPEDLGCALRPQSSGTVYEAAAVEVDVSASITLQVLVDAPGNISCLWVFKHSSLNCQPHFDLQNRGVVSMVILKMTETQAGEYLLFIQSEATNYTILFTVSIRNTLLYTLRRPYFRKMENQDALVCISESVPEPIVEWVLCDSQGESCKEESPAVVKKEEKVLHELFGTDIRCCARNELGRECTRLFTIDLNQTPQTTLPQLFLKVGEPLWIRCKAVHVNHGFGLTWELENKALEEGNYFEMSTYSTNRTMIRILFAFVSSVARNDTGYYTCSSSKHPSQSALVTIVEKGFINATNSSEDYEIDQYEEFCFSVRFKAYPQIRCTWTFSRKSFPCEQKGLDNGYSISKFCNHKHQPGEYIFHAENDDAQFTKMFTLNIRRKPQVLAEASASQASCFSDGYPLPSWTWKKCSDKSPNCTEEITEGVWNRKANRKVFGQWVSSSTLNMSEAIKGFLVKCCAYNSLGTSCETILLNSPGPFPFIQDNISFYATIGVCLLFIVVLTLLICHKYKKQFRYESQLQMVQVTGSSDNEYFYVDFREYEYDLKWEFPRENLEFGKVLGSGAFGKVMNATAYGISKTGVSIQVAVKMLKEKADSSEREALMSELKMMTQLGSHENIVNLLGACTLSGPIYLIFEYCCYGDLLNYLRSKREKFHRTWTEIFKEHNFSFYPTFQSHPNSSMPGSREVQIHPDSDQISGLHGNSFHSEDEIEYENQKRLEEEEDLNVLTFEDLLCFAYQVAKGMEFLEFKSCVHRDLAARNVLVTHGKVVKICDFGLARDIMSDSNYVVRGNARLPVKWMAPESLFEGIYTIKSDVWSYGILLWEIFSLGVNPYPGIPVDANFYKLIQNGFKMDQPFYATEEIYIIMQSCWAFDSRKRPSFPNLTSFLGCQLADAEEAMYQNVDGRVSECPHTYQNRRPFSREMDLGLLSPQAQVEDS

| Compound | CC50 at 48 h [1] [µM] | EC50 [2] [µM] | IC50 [4] [µM] | also measured |
| --- | --- | --- | --- | --- |
| COc1cc(-c2cnc3c(-c4cccc(NC(=O)C5CCCC5)c4)snc3c2)ccc1N | 13 | 1.8 | – | – |
| COc1cc(-c2cnc3c(N4CCCC(CNC(=O)c5ccccc5)C4)snc3c2)ccc1N (stereo not drawn) | > 20 | 3.9 | – | – |
| COc1cc(-c2cnc3c(N4CCC[C@H](CNC(=O)C5CC5)C4)snc3c2)ccc1N | > 20 | 7.5 | 0.013 | Activity [3]: < 10%; Activity [5]: < 10%; Activity [6]: < 10%; Activity [7]: < 10%; Activity [8]: < 10%; Activity [9]: < 10%; Activity [10]: < 10% |
| CCC(=O)Nc1cccc(-c2snc3cc(-c4ccc(N)c(OC)c4)cnc23)c1 | 9.9 | 1.9 | – | – |
| C#Cc1cccc(Nc2ncnc3cc(OCCOC)c(OCCOC)cc23)c1 [ERLOTINIB] | > 20 | 12 | – | – |
| COc1cc(-c2cnc3c(-c4cccc(NC(=O)C5CC5)c4)snc3c2)ccc1N | 15 | 3.6 | – | – |
| CCC(=O)Nc1ccc(-c2snc3cc(-c4ccc(N)c(OC)c4)cnc23)cc1 | – | – | > 1.1 | – |
| COc1cc(-c2cnc3c(N4C[C@@H](C)O[C@@H](C)C4)snc3c2)ccc1N | > 20 | 0.96 | – | – |
| COc1cc(-c2cnc3c(N4CCOCC4)snc3c2)ccc1N | – | – | 0.051 | – |
| COc1cc(-c2cnc3c(N4CCCC(CNC(=O)C5CCCC5)C4)snc3c2)ccc1N (stereo not drawn) | > 20 | 2.6 | – | – |
| COc1cc(-c2cnc3c(-c4cccc(NC(=O)C(C)C)c4)snc3c2)ccc1N | 14 | 3.8 | – | – |
| COc1cc(-c2cnc3c(N4CCC[C@@H](CNC(=O)C5CC5)C4)snc3c2)ccc1N | – | – | 0.36 | – |
| COc1cc(-c2cnc3c(N4CCCC(CNC(=O)N5CCCC5)C4)snc3c2)ccc1N (stereo not drawn) | > 20 | 4.1 | – | – |
| COc1cc(-c2cnc3c(N4CCCC(CNC(=O)C5CC5)C4)snc3c2)ccc1N (stereo not drawn) | > 20 | 4 | 0.014 | – |
| COc1cc(-c2cnc3c(-c4cccc(NC(=O)N5CCCC5)c4)snc3c2)ccc1N | > 20 | 6 | – | – |
| COc1cc(-c2cnc3c(-c4cccc(NC(=O)N5CCOCC5)c4)snc3c2)ccc1N | > 20 | 7.9 | – | – |
